One compound from patent US20020177625A1, “Class of glaucoma drugs to enhance aqueous humor outflow and lower intra-ocular pressure” (The Regents of the University of California, a California …, priority 2001, published 2002) can be followed below.

The test deals with T1, Na—K—Cl co-transporter (Homo sapiens, UniProt P55011).
T1 construct: endogenous in cells; host or cells: cultured human trabecular meshwork (TM) cells, normal or glaucomatous donors
T1 sequence (P55011 1-1212): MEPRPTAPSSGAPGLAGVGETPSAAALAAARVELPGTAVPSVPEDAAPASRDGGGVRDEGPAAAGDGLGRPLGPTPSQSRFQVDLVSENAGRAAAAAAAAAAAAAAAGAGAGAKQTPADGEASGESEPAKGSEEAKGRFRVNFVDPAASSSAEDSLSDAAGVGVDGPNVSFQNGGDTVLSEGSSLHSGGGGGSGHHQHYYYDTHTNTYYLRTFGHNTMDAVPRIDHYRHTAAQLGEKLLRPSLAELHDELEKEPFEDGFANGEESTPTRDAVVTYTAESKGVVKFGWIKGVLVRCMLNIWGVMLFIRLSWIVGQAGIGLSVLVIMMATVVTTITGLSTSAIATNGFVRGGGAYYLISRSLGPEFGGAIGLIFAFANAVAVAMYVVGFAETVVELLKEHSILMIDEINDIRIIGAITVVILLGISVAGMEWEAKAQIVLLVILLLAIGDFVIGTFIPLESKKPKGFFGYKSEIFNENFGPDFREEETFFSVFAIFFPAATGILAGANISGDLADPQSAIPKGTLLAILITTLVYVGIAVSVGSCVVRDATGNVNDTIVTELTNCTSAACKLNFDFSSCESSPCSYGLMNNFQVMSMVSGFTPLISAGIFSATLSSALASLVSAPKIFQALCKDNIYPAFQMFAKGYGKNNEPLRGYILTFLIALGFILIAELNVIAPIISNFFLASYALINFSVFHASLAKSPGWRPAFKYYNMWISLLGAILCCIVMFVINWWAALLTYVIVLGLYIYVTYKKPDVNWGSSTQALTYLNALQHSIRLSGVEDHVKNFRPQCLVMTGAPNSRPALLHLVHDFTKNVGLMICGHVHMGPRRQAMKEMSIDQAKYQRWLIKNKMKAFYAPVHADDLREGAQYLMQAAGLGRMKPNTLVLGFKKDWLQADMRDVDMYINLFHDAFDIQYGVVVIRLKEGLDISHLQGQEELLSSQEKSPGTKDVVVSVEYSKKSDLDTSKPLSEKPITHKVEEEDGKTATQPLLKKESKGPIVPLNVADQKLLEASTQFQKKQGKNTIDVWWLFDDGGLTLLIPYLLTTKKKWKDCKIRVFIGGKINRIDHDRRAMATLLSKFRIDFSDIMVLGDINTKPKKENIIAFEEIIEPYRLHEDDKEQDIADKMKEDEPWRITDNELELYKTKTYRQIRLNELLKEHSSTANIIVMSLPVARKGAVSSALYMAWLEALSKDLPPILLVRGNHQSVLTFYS
Briefly: Na—K—Cl co-transport measured as bumetamide-sensitive K influx (86Rb tracer) in human TM cell monolayers. The format is cell-based. Particulars: human TM cells. The protocol:
Na—K—Cl co-transport was measured as ouabain-insensitive, bumetamide-sensitive potassium influx, using ^86Rb as a tracer for potassium. […] The assay medium also contained ^86Rb (1 μCi/ml) (Dupont New England Nuclear, Boston, Mass.). The assay was terminated by rinsing the wells with ice-cold isotonic MgCl2, then extracting the contents with 0.2% sodium dodecyl sulfate (SDS), and determining the amount of radioactive contents by liquid scintillation. Osmolarities of all preincubation and assay media were verified by osmometry (Model 3W2, Advanced Instruments, Norwood, Mass.).
The cells were pretreated with Hepes-buffered minimal essential medium (MEM) ±10 μM bumetamide ±1 mM ouabain for 5 min, then assayed for 5 min in the same media plus ^86Rb. […] Data are means ±SEM, n=12.
Na—K—Cl co-transport activity of glaucomatous human TM cells was assessed as ouabain-insensitive, bumetamide-sensitive K influx, using ^86Rb as a tracer for K, as described previously. TM cells were preincubated for 5 minutes in a Hepes-buffered MEM containing 0 or 10 μM bumetamide in the presence of 1 mM ouabain, followed by a 5 minute assay in media of identical composition except that they also contained ^86Rb. […] Data are mean values ±SEM in seven normal TM cultures (donor age range, 38-68 years, n=12 in each cell culture) and in seven glaucomatous cultures (donor age range 41-75 years, n=7 in each cell culture).
Human TM cells were equilibrated in Hepes-buffered MEM for 30 minutes and then pretreated for 5 minutes in media containing 1 mM ouabain, 10 or 0 μM bumetamide, and 0.3 μM to 1 mM niflumic acid (NA). Cells were then assayed for bumetamide-sensitive K influx for 5 minutes in media identical to the pretreatment media but also containing ^86Rb (1 μCi/ml). […] Dashed line indicates control level of Na—K—Cl co-transport. Data are means ±SEM of at least 4 determinations from 3 experiments.

On to `O=C(O)c1cccnc1Nc1cccc(C(F)(F)F)c1` [niflumic acid], for which the “K influx value versus 0 mM NA control” value (niflumic acid 0.1 μM) is “not significantly different”. For the setting “niflumic acid 0.3 μM to 100 μM”, the “Na—K—Cl co-transporter activity” value is listed as “significantly stimulate”.
